In patent US20130035358A1, “Bis Aromatic Compounds for Use as LTC4 Synthase Inhibitors” (priority 2010, published 2013):
≈ marks a conversion by molar mass, not a printed value.

Key:
[1] = target: T1, LTC4 synthase (Homo sapiens, UniProt Q16873); experiment: Test 2: LTC4 synthase IC50 procedure, ten concentrations, LTC4 HTRF kit; format: biochemical; settings: Table 2; cells marked (Test 2)
T1 sequence (Q16873 1-150): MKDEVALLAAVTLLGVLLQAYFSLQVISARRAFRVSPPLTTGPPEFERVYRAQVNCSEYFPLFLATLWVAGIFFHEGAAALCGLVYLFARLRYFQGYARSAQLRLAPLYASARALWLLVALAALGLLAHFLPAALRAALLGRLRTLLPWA
Procedure: For certain compounds, in order to obtain IC50-values for the compounds, following procedure was used: • 1. A volume (24 μL) of 0.25 μg/mL LTC4 synthase in 75 mM tris (pH ˜8.5), 0.5 mM MgCl2 and 3 mM GSH was preincubated for 10 min with 0.5 μL of compound of interest in DMSO at ten different concentrations, typically in the range 10^−9,5-10^−5M as well as with DMSO only. The buffer is used as background. Runs are performed in duplicates. • 2. The enzymatic reaction is initiated by addition of 0.5 μL LTA4 in diglyme (final assay concentration 8 μM). • 3. The reaction is stopped after 1 min by addition of double the reaction volume of a stop solution (MeOH:H2O:acetic acid 70:30:1). • 4. After 15 fold dilution in PBS, LTC4 formation is detected with LTC4 HTRF kit (Cisbio, cat. No 64LC4PEC) and a fluorescence reader. Typically 10 μL of sample is mixed with 5 μL of each of the HTRF reagents d2 and k and analyzed as described in the kit manual.
The detected product concentration, with background subtracted, is plotted versus compound concentration and IC50 is determined as 50% of maximum inhibition.
(§1) IC50 values for title compounds of the examples are depicted in the tables hereinafter (where, they are the values obtained using Test 1, unless otherwise indicated).

[2] = Thermodynamic aqueous solubility in USP phosphate buffer (Example 25); format: physicochemical; settings: aqueous buffer, thermodynamic from solid; USP phosphate buffer pH 7.4, 24 h at 20° C., LC-MS/MS; read-out: Thermodynamic aq solubility
Procedure: The method described here was developed to accurately determine the aqueous solubility of compounds of the invention in buffer solution at a given pH.
Solid material (1 mg) of test compound is added to a glass vial followed by 1 ml of buffer solution (pH 7.4 if another pH not is stated). The solution is left on an orbital shaker for 24 h at 20° C. After incubation, the remaining solid material is separated from solution and the solubility is quantified using LC-MS/MS.
Prepare 0.2 M monobasic potassium phosphate solution by dissolving 27.22 g of KH2PO4 (MW=136.09 g/mol) in water, dilute with water to 1000 mL.
Add 250 mL of the monobasic potassium phosphate solution in a 1000 mL volumetric flask together with 195.5 mL 0.2M NaOH (aq). Add water to 1000 mL. Check pH.
Compounds of the invention/examples to be tested were provided as solid material, weighed into glass vials (2 mL). Each vial contains approximately 1 mg solid compound, two vials/compound are prepared, i.e. duplicate samples of each compound. If a freshly prepared 10 mM DMSO stock solution was available, this solution was used for MS optimization and preparation of standards. If a DMSO-stock solution was not available, a 10 mM solution from solid material 1 mg was prepared.
• Test compounds are employed as solid material. Since duplicate samples are prepared for each compound, each test compound arrives in two vials (1+1 mg). Samples are denoted as sample 1 and 2. • Note amount of substance in each vial. Add USP phosphate buffer pH 7.4 (1 mL) to each sample vial and seal vials using screw caps. Determine whether the solutions are saturated or if compounds are dissolved, note appearance and time. Start incubation; the samples are incubated on an orbital shaker (450 rpm) at 20° C. for 24 hours.
• Take out the 1 mM DMSO-stock solutions of compounds that are to be tested from freezer. If no 1 mM solutions are available, use master solutions with concentration of 10 mM. Allow the solutions to thaw at rt. • Collect two 96-deep well plates, glass inserts, sealing film, and an 8-channel expandable pipette with tall tips. • Abort shaking after 24 hour. • Note if samples are saturated or if compounds have dissolved. • Transfer 720 μL of sample slurry from each sample vial into glass inserts in a 96-deep well plate using an 8-channel expandable pipette. Samples 1 and 2 are transferred to separate plates. Thus, all samples 1 are placed in one plate and all samples 2 in the second plate. • Seal the plates using sealing film. • Centrifuge the plates at 3000 rpm for 15 min at rt. Set acceleration to 9 and brake to 7 (9=fastest acc/brake, 0=slowest acc/brake). • Transfer the supernatants to new glass inserts using an 8-channel pipette, centrifuge samples a second time. • Repeat the procedure above, i.e. centrifuge samples a third time. • After the third centrifugation, transfer supernatant to glass vials, seal vials with screw caps. Control that the solutions are clear and that no particles are present in sample. If solid material is observed, an additional centrifugation step is performed. • Standards are prepared from DMSO-stock solutions (1 or 10 mM). For each compound, transfer […] 1 mM solution to a glass vial, add DMSO (90 μL) to reach a final concentration of 100 μM, seal with screw cap and mix solution quickly on a vortex mixer. Further dilute the 100 μM solution with a 1:1 mixture of acetonitrile and USP phosphate buffer (pH 7.4) to standards with concentration 1000, 500, 100, 25, 2, and 1 nM. Standards are prepared in test tubes.
• Place standards in autosampler. • Try out the dilution of solubility samples so that their response will be within the standard curve. Dilute solubility sample one (or two) with the 1:1 mixture of acetonitrile:buffer. […]

[3] = target: T1, LTC4 synthase; experiment: Test 1 in vitro assay: LTC4 synthase converts LTA4 to LTC4, HTRF detection; format: biochemical; design: made in house; host or cells: Pichia pastoris; settings: Table 2; Test 1 (unless otherwise indicated)
Procedure: In the assay, LTC4 synthase catalyses the reaction where the substrate LTA4 is converted to LTC4. Recombinant human LTC4 synthase is expressed in Piccia pastoralis and the purified enzyme is dissolved in 25 mM tris-buffer pH 7.8 supplemented with 0.1 mM glutathione (GSH) and stored at −80° C. The assay is performed in phosphate buffered saline (PBS) pH 7.4 and 5 mM GSH in 384-well plates.
The following is added chronologically to each well:
1. 48 μL LTC4 synthase in PBS with 5 mM GSH. The total protein concentration in this solution is 0.5 μg/mL. 2. 1 μL inhibitor in DMSO (final concentration 10 μM). 3. Incubation of the plate at room temperature for 10 min. 4. 1 μL LTA4 (final concentration 2.5 μM). 5. Incubation of the plate at room temperature for 5 min. 6. 10 μL of the incubation mixture is analysed using homogenous time resolved fluorescent (HTRF) detection.
as §1

Compound | IC50 [1] [nM] | solubility thermodynamic at 24 h [2] [µM] | IC50 [3] [nM]
CCC(=O)c1ccc(C(=O)c2ccc(N(CC3CC3)c3ccc(Cl)cc3)cn2)cc1C(=O)O [Example 23, 5-(5-((4-Chlorophenyl)(cyclopropylmethyl)amino)picolinoyl)-2-propionylbenzoic acid] | 129 | – | –
O=C(c1ccc(C(=O)C2CC2)c(C(=O)O)c1)c1ccc(N(CC2CC2)c2ccc(Cl)cc2)cn1 [Example 24, 5-(5-((4-Chlorophenyl)(cyclopropylmethyl)amino)picolinoyl)-2-(cyclopropanecarbonyl)benzoic acid] | 424 | – | –
CC(=O)c1ccc(C(=O)c2ccc(N(CC3CC3)c3ccc(Cl)cc3)cn2)cc1C(=O)O [Example 22, 2-Acetyl-5-(5-((4-chlorophenyl)(cyclopropylmethyl)amino)picolinoyl)benzoic acid] | 307 | 1860 (≈ 835 µg/mL) | –
O=C(c1ccc(C(=O)C2(c3ccccc3)CC2)c(C(=O)O)c1)c1ccc(N(CC2CC2)c2ccc(Cl)cc2)cn1 [Example 8, 5-(5-((4-Chlorophenyl)(cyclopropylmethyl)amino)picolinoyl)-2-(1-phenylcyclopropanecarbonyl)benzoic acid] | – | 125 (≈ 68.9 µg/mL) | 41
CN(c1ccc(Cl)cc1)c1ccc(C(=O)c2ccc(C(=O)C34CC5CC(CC(C5)C3)C4)c(C(=O)O)c2)nc1 [Example 12, 2-(Adamantane-1-carbonyl)-5-(5-((4-chlorophenyl)(methyl)amino)picolinoyl)benzoic acid] | – | 15 (≈ 7.94 µg/mL) | 65
